Consider 15 compounds from ChEMBL document CHEMBL5512623, “Discovery of the novel and potent histamine H1 receptor antagonists for treatment of allergic diseases” (Eur J Med Chem, 2024).

Series [1] addresses Muscarinic acetylcholine receptor M3 (Homo sapiens, UniProt P20309). Nature of the series: Antagonist activity at human muscarinic M3 receptor expressed in PathHunter U2OS CHRM3 beta-arrestin cells preincubated for 30 mins followed by agonist addition at 6 times EC80 and measured after 90 to 180 mins by PathHunter assay. The series is classed as functional, cell-based.
The target in a further series is Histamine H1 receptor (Homo sapiens, UniProt P35367). In words: Antagonist activity at human H1 receptor expressed in PathHunter CHO-K1 HRH1 beta-arrestin cells preincubated for 30 mins followed by agonist addition at 6 times EC80 and measured after 90 to 180 mins by PathHunter assay. The series is classed as functional, cell-based.
Chain of Histamine H1 receptor (P35367 whole entry): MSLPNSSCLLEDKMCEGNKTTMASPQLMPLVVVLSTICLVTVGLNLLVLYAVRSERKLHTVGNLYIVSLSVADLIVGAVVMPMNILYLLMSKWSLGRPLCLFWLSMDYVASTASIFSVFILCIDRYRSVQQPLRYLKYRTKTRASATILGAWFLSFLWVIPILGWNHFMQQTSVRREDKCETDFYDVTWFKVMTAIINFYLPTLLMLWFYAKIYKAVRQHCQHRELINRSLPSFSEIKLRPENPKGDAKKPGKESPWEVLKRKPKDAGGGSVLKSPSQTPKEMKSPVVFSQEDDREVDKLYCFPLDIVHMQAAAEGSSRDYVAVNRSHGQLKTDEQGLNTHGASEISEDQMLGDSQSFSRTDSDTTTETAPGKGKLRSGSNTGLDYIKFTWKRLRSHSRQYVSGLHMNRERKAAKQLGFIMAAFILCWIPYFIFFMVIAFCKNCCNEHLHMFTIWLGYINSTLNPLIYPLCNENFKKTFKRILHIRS
The target of series [2] is Voltage-gated inwardly rectifying potassium channel KCNH2 (Homo sapiens, UniProt Q12809). In words: Inhibition of hERG in HEK293 cells measured after 5 mins by patch-clamp assay. On the technique in general: Block of hERG is tested as a sign of cardiac risk.
Chain of Voltage-gated inwardly rectifying potassium channel KCNH2 (Q12809 whole entry): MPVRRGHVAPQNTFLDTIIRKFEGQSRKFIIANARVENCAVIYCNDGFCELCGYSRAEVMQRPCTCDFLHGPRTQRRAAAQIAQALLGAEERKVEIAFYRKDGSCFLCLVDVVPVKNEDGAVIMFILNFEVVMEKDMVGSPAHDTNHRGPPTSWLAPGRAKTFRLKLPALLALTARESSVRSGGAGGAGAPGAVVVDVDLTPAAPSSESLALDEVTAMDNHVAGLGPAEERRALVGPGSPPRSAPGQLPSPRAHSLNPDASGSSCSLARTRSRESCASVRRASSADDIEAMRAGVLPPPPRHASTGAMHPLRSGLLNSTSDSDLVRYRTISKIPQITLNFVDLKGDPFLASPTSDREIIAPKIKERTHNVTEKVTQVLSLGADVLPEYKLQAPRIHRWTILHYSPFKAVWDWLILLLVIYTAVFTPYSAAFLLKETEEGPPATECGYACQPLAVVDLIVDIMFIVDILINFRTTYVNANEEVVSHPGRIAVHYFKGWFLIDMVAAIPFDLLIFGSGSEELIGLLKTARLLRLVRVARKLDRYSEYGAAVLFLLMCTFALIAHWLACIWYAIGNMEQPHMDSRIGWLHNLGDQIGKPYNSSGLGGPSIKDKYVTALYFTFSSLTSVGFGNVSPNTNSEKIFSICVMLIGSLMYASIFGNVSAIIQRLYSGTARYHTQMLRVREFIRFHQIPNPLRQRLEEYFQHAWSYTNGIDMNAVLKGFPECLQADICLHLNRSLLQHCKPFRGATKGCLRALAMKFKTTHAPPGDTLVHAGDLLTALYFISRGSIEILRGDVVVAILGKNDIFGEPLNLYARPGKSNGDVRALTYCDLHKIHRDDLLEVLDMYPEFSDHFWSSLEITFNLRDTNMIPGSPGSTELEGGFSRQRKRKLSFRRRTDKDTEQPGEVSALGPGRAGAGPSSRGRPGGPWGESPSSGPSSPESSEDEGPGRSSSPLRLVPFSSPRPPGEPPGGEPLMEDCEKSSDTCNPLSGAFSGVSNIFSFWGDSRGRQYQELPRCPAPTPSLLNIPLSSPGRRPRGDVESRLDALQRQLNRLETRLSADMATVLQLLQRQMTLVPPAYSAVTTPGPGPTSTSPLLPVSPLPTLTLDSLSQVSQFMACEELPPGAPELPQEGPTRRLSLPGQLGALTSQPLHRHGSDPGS
Series [3] in a line: Efflux ratio of apparent permeability across basolateral to apical over apical to basolateral side in human Caco-2 cells at 5 uM measured at 60 mins. The series is classed as ADME, cell-based. (In general: Caco-2 cells form a polarised layer with tight junctions and transporters.)
A short description of series [4]: Apparent permeability across basolateral to apical side in human Caco-2 cells at 5 uM measured at 60 mins. The series is classed as ADME, cell-based.
Series [5] in a line: Apparent permeability across apical to basolateral side in human Caco-2 cells at 5 uM measured at 60 mins. The series is classed as ADME, cell-based.
Series [6] is described as follows: Cmax in female Sprague-Dawley rat brain at 10 mg/kg, IG administered as single dose. The series is classed as ADME, organism-based. The following applies: po.
Series [7] is described as follows: Cmax in female Sprague-Dawley rat plasma at 10 mg/kg, IG administered as single dose. The series is classed as ADME, organism-based. The following applies: po.
A short description of series [8]: Cmax in male Sprague-Dawley rat plasma at 10 mg/kg, IG administered as single dose. The series is classed as ADME, organism-based. The note with it: po.
Series [9] in a line: Cmax in male Sprague-Dawley rat brain at 10 mg/kg, IG administered as single dose. The series is classed as ADME, organism-based. The following applies: po.

Chain of Muscarinic acetylcholine receptor M3 (P20309 whole entry): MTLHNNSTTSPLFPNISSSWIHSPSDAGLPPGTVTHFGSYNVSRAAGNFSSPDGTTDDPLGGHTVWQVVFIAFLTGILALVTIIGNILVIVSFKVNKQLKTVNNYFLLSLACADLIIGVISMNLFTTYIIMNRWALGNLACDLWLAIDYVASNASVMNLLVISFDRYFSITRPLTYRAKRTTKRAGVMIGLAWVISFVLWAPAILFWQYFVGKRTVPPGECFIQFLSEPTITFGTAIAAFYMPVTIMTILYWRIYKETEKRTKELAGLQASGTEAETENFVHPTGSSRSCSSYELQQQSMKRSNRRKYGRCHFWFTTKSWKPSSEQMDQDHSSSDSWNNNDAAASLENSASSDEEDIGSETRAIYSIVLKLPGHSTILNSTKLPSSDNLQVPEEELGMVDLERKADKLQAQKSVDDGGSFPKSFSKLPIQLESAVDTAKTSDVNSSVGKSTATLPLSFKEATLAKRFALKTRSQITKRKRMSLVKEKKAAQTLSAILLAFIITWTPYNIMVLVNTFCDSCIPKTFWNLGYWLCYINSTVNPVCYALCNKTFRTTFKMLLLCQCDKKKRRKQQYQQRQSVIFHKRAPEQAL

Usually IC50 stands for the concentration that inhibits the measured activity by half. A low value points to greater potency. Consider `O=C(O)CC(O)CN1CCC(=C2c3ccc(Cl)cc3CCc3cccnc32)CC1` (centres undefined), for which the results for the IC50 (in series [1]; at Histamine H1 receptor; in series [2]) were over 10 µM, 0.126 µM and over 30 µM, respectively.
As for `OC[C@H](O)CN1CCC(=C2c3ccc(Cl)cc3CCc3cccnc32)CC1`, the IC50 in [1] is over 10 µM; in series [2], 2.64 µM.
On to `NC(=O)c1cn(CCN2CCC(=C3c4ccc(Cl)cc4CCc4cccnc43)CC2)nn1`, for which the figures for the IC50 in series [1] and in [2] were over 10 µM and 6.36 µM, respectively.
By efflux ratio is commonly meant a quotient of directional permeabilities that is used to spot active efflux. Usually Papp B→A stands for how fast a substance crosses the layer from the basolateral side. Broadly, the Papp A→B is how fast a substance crosses the layer from the apical side. Turning to `CC(C)NCC(O)COc1cccc2ccccc12` (centres undefined) [PROPRANOLOL], the efflux ratio at 1 h, 5 µM in [3] amounted to 0.59. Moreover, the Papp B→A at 1 h, 5 µM in [4] came to 20.5 ×10⁻⁶ cm/s. The apparent permeability from apical to basolateral (Papp A→B) at 1 h, 5 µM in [5] amounted to 34.8 ×10⁻⁶ cm/s.
For `CC(C)(C(=O)O)c1ccc(CCCN2CCC(=C3c4ccc(Cl)cc4CCc4cccnc43)CC2)cc1`, the IC50 in series [1] was over 10 µM; in [2] it was over 30 µM.
Take `CC(C)(C(=O)O)c1ccc(CCCN2CCC(=C3c4ccc(Cl)cc4CCc4cccnc43)CC2)c(F)c1`: the IC50 was over 10 µM in series [1] and 30.1 µM in series [2].
As to `CC(C)(C(=O)O)c1ccccc1CCCN1CCC(=C2c3ccc(Cl)cc3CCc3cccnc32)CC1`, in [1], the 50% inhibitory concentration (IC50) was over 10 µM.
The term Cmax denotes the peak of the concentration-time curve. On to `Clc1ccc2c(c1)CCc1cccnc1C2=C1CCNCC1` [DESLORATADINE], for which the Cmax in series [6] amounted to 1180 ng/g; in series [7], 549 ng/g; in series [8], 112 ng/g; in [9], 843 ng/g.
As for `CC(C)(C(=O)O)c1cccc(CC(O)CN2CCC(=C3c4ccc(Cl)cc4CCc4cccnc43)CC2)c1` (centres undefined), the IC50 in series [1] was over 10 µM; on Histamine H1 receptor, 0.0572 µM.
Regarding `CC(C)(C(=O)O)c1ccc(CCN2CCC(=C3c4ccc(Cl)cc4CCc4cccnc43)CC2)cc1`, the 50% inhibitory concentration (IC50) in [1] is over 10 µM; in [2], over 30 µM.
In turn, `CC(C)(C(=O)O)c1cccc(NCCN2CCC(=C3c4ccc(Cl)cc4CCc4cccnc43)CC2)c1` showed an IC50 in series [1] of over 10 µM.
On the same count and under the same terms, as for `O=C(O)c1ccc(CCCN2CCC(=C3c4ccc(Cl)cc4CCc4cccnc43)CC2)cc1`, the figure is over 10 µM.
As for `CC(C)(C(=O)O)c1ccc(CN2CCC(=C3c4ccc(Cl)cc4CCc4cccnc43)CC2)cc1`, the IC50 in series [1] is over 10 µM; in [2], 18.4 µM.
Turning to `O=C(CCO)N1CCC(=C2c3ccc(Cl)cc3CCc3cccnc32)CC1`, the IC50 in series [1] was over 10 µM.
In series [1], `CC(C)(C(=O)O)c1ccc(CCCN2CCC(=C3c4ccc(Cl)cc4CCc4cccnc43)CC2)nc1` yielded an IC50 of over 10 µM.
